The values that follow come from publication PMC6384991, “5-Arylideneimidazolones with Amine at Position 3 as Potential Antibiotic Adjuvants against Multidrug Resistant Bacteria” (Molecules, 2019).

The test system of data set [1] is MDR strains of Gram-negative bacteria. On the set-up: method as in PMID 26824939. The conditions noted are these: cited from earlier work.
In data set [2] the test system is MRSA HEMSA 5. The data set is described as follows: Intrinsic antibacterial activity (MIC, microdilution) against MRSA HEMSA 5. It counts as cell-based, S. aureus. The procedure:
(§1) Initially, 12 arylideneimidazolone derivatives were evaluated in vitro for their intrinsic antibacterial effect against two strains of S. aureus: the reference strain S. aureus ATCC 25923 and extremely-drug resistant (XDR) MRSA HEMSA 5 clinical isolate. This step of the study was necessary for: (i) elucidation whether molecules tested are devoid of antistaphylococcal activity and thus cannot become antimicrobial agents by themselves; and (ii) determination of the concentrations of compounds suitable for the further assay on their antibiotic adjuvant potency. In addition, the antistaphylococcal efficacy of oxacillin, which was paired with compounds tested, in the following assays was also assessed (Table 3).

In data set [3] the test system is S. aureus ATCC 25923. The data set is described as follows: Intrinsic antibacterial activity (MIC, microdilution) against reference S. aureus strain. It counts as cell-based. The conditions noted are these: S. aureus ATCC 25923, compound alone, MH II broth. The procedure:
as §1
(Broth dilution looks for growth in wells or tubes with falling amounts of substance.)

Data set [4] in a line: PAMPA membrane permeability (Pre-coated PAMPA Plate System Gentest). Format: in vitro ADME. The conditions noted are these: 200 µM in PBS pH 7.4, room temperature, read-out: Pe ± SD. A general note: The PAMPA barrier holds no transporters, so it reflects passive diffusion.
The test system of data set [5] is Salmonella typhimurium TA100. It counts as cell-based. The conditions noted are these: for Mean of Revertants: 72 h; for Fold Increase Over Baseline: mutagenic if ≥ 2; for Binomial B-Value: ≤ 0.01 may be cytotoxic effect. As for the experimental part:
The mutagenicity was evaluated using Ames microplate fluctuation protocol (MPF) performed with Salmonella typhimurium TA100 strain, which is able to detect base pair substitutions. Calculation of medium control baseline (MCB) was performed basing on mean number of revertants in standard medium control in addition with one standard deviation. According to the manufacturer’s protocol, the mutagen alert is determined as 2-fold of medium control baseline (2 x MCB), which in this study was calculated as 24 revertants.
Ames microplate fluctuation protocol (MPF) assay was obtained from Xenometrix AG (Allschwil, Switzerland). The occurrence of mutagen-induced or spontaneous reversion events to histidine prototrophy was determined as a growth of S. typhimurium TA100 in the indicator medium without histidine after 72 h incubation at 37 °C temperature. NQNO (0.5 µM) was used as a positive control. Compound 9 was tested in triplicate at the final concentrations 1 and 10 µM. The revertants’ growth induced the colour change of medium which was analysed next colourimetrically with a microplate reader (EnSpire, PerkinElmer, Waltham, MA, USA) at 420 nm.

The test system of the next data set is HepG2 cells. The data set is described as follows: Hepatotoxicity, MTS viability assay. It counts as cell-based. The conditions noted are these: 72 h; for HepG2 cells' viability: MTS. As for the experimental part: Determination of potential hepatotoxicity was performed with hepatoma HepG2 cells by standard colorimetric MTS procedure. Compound 9 was diluted into the cell culture media in the following concentrations: 0.1, 1, 10 and 100 μM, added to the cells and incubated for 72 h at 37 °C in the presence of 5% CO2. The cytostatic drug doxorubicin (DX) was used at 1 µM, as the reference. […] However, in comparison to the result obtained for the reference DX the hepatotoxicity potential of tested compound is moderate, as its decreased cells’ viability to ~74% of control at 10 µM, whereas DX to ~15% of control at 1 µM (Figure 10).
The HepG2 cells were seeded in 96-well plates at a concentration of 1 × 10^4 cells/well and incubated for 24 h at 37 °C in 5% CO2 atmosphere to reach 50% of confluence. Compound 9 was diluted into fresh growth medium and added to the cells at the final concentrations 0.1 μM–100 μM. The positive controls DX and CCCP were added at 1 μM and 10 μM, respectively, and the cells were incubated for 72 h. The MTS reagent (CellTiter 96® AQueous One Solution Cell Proliferation Assay, Promega, Madison, WI, USA) was added next to the each well and incubated for 4 h. The absorbance was measured next using a microplate reader (EnSpire, PerkinElmer, Waltham, MA USA) at 490 nm to determine cells’ viability.
(In general: Formazan colour is commonly taken as a measure of viable cells.)

The subject of data set [6] is AcrAB-TolC efflux pump in E. aerogenes Ea-289. The data set is described as follows: Real-time efflux (RTE) assay with 1,2'-dNA. The conditions noted are these: compound 100 µM; Ea-289 strain.
The subject of data set [7] is E. aerogenes Ea-294, Ea-298. The data set is described as follows: MIC (microdilution) against E. aerogenes strains devoid of AcrAB / TolC.
In another data set the test system is E. aerogenes CM-64. Description: MIC (microdilution) against E. aerogenes CM-64 overexpressing AcrAB-TolC.
The test system of another data set is E. aerogenes Ea-289. The data set is described as follows: MIC (microdilution) against E. aerogenes Ea-289 overexpressing AcrAB-TolC, porin-deficient.
Data set [8] has as its system MRSA HEMSA 5. The data set is described as follows: MIC reduction assay: influence on oxacillin susceptibility in MRSA. It counts as cell-based, S. aureus. As for the experimental part:
The lack of a direct antibacterial activity of arylideneimidazolone derivatives tested allowed analyzing their anti-resistance potency in combination with the β-lactam antibiotic, oxacillin. […] The potential of compounds to become antibiotic adjuvants was evaluated by comparing the drug effectiveness in the presence and absence of compounds tested, thereby, by determining activity gain parameter A (Table 5). […] Slightly lower adjuvant-like activity was determined for the imidazolone derivatives 7 and 10 (A = 8–16). The efficacy of the remaining compounds was slightly less marked, however, also significant. Although compounds tested improved noticeably the antibacterial activity of oxacillin against MRSA clinical isolate, none of them restored the activity of the antibiotic (MIC < 2 µg/mL) against this highly resistant strain.

The test system of data set [9] is S. aureus ATCC 25923. The data set is described as follows: MIC reduction assay: influence on oxacillin susceptibility in reference strain. Format: cell-based.

Broadly, the MIC is the lowest concentration that inhibits growth of the organism. Usually melting point stands for the temperature, or range, at which the solid turns liquid.

Values joined by “and” are separate entries in the source; they are usually repeats but may differ in a detail not shown here. Equal values may be shown once. Read-outs that look alike come from different tables or passages of the source.

With `O=C1NC(N2CCNCC2)=N/C1=C\c1ccc(-c2ccccc2)cc1` [Compound 5], the “reduction of rifampin MIC” value in data set [1] (MDR Gram-negative bacteria) is 32 fold. In addition, the “reduction of antibiotics MIC values” in data set [1] (oxacillin, chloramphenicol, linezolid and clarytromycin) is on record as 8 fold.

In turn, `CN1CCN(CCCN2C(=O)/C(=C/c3ccc4ccccc4c3)N=C2N)CC1.Cl` [Compound 9, (Z)-2-Amino-3-(3-(4-methylpiperazin-1-yl)propyl)-5-(naphthalen-2-ylmethylene)-3H-imidazol-4(5H)-one hydrochloride] showed a melting point of 215 to 217 °C. The MIC with MRSA HEMSA 5 [2] (Staphylococcus aureus, MRSA HEMSA 5, compound alone, MH II broth, read-out: MIC Value) was 500 µM. Also, the MIC in the data set with S. aureus ATCC 25923 [3] (Staphylococcus aureus, ATCC25923, read-out: MIC Value) is 500 µM. Also, the Papp at 5 h, 200 µM in data set [4] is 0.72 ± 0.27 ×10⁻⁶ cm/s. Besides, in data set [5] (1 µM), the “Mean of Revertants” value was found to be 9.33, the “Fold Increase Over Baseline” value is given as 0.78 and the “Binomial B-Value” stood at 0.6331. Also, in [5] (10 µM), the “Mean of Revertants” value was determined as 5.33, the “Fold Increase Over Baseline” value was 0.44 and the “Binomial B-Value” amounted to 0.0093. The molecule also had a maximum revertants occurred in data set [5] (1 and 10 µM, mutagen alert 24 revertants) of at most 11 revertants. The “HepG2 cells' viability” value in the data set with HepG2 cells (10 µM) was ~ 74 % of control. In the data set on HepG2 cells (10 and 100 µM, p < 0.001 vs control), the “effect on HepG2 cells viability” value was “statistically significant decrease”. Moreover, the “Inhibitory efficiency (IE) of 1,2'-dNA efflux” value in data set [6] came out at 80%. This molecule displayed an MIC in data set [7] (Klebsiella aerogenes) of 1000 µM. The MIC with E. aerogenes CM-64 (Klebsiella aerogenes, CM64) was over 2000 µM. For the same molecule, in the data set on E. aerogenes Ea-289 (Klebsiella aerogenes, EA289), the MIC was over 2000 µM.

On to `COc1cccc2c1C(=O)c1c(O)c3c(c(O)c1C2=O)C[C@@](O)(C(=O)CO)C[C@@H]3O[C@H]1C[C@H](N)[C@H](O)[C@H](C)O1` [DX, doxorubicin, reference compound], for which, in the data set on HepG2 cells (1 µM), the “HepG2 cells' viability” value is ~ 15 % of control.

As for “(Z)-5-((9H-Fluoren-2-yl)methylene)-2-amino-3-(2-(4-methylpiperazin-1-yl)ethyl)-3H-imidazol-4(5H)-one hydrochloride [Compound 13]”, the “MIC Value” is 125 µM in the data set on MRSA HEMSA 5 [2] (MRSA HEMSA 5, compound alone, MH II broth) and 62.5 to 125 µM against S. aureus ATCC 25923 [3]. For the same molecule, the MIC was 0.0625–0.125 mM and 28.25–56.5 µg/mL in the data set on MRSA HEMSA 5 [2] (text summary for both strains: ATCC 25923 and MRSA HEMSA 5); 250 µM in data set [7] (Ea-294, Ea-298); 500 µM in the data set with E. aerogenes CM-64 (CM-64); 500 µM in the data set with E. aerogenes Ea-289 (Ea-289). The “Activity Gain [A]” value in the data set on MRSA HEMSA 5 [8] is on record as 4–8; in the data set with S. aureus ATCC 25923 [9] it was 1. The “Range of Reduction (oxacillin MIC)” value with MRSA HEMSA 5 [8] was “from 512 to 64-128”; in the data set on S. aureus ATCC 25923 [9], “no effect”.
